Drawing on patent publication EP0576227A2, “2'-Deoxy-2',2'-difluoro(2,6,8-substituted) purine nucleosides having anti-viral and anti-cancer activity and intermediates” (ELI LILLY AND COMPANY, priority 1992, dated 1993), this text covers inhibition and IC50 for one compound.

≈ marks a conversion by molar mass, not a printed value.

The assay deals with Hepatitis B Virus. Nature of the assay: Hepatitis B Virus Test (HBV DNA in supernatant of Hep10A cells, PCR / Southern blot). In kind it is cell-based, human Hepatitis B Virus (HBV). The following applies: 240 h. The source says:
Plasmids were constructed using standard recombinant DNA techniques; see Sambrook, J., et al., Molecular Cloning: A Laboratory Manual, 2nd Edition (1989), Cold Spring Harbor Press, Cold Spring Harbor, NY. Plasmid pTHBV contains a head-to-tail dimer of the human Hepatitis B Virus (HBV) genome, subtype adw, clone into the EcoR I site of pUC9. […] and subcloned into the Sal I site of pTHBV after a two base fill-in reaction with the Klenow fragment of E. coli DNA polymerase I.
HepG2 cells (human hepatoblastoma, ATCC HB 8065) were routinely passaged in growth medium consisting of EARLE'S minimal essential media (Grand Island Biological Company (GIBCO) Bethesda Research Laboratories (BRL), Life Technologies, Inc., Gathersburg, MD.) supplemented with sodium pyruvate, 10 percent fetal bovine serum, 100 units/ml penicillin, and 100 µg/ml streptomycin. Hep10A cells were derived from HepG2 cells. Briefly, HepG2 cells were seeded into 60 mm culture dishes in growth medium, and when approximately 50 percent confluent, were transfected with pTHBVneo using the calcium phosphate precipitation method described by Graham, F.L. and Van der Eb in Virology, 52, p 456-467 (1973). After four hours of post-transfection, the cells were shocked with 10 percent dimethylsulfoxide and 20 percent glucose for 5 minutes, after which they were allowed to recover for 24 horus. The transfected cells were passaged and reseeded in the presence of growth medium containing 800 µg/ml geneticin. The cells were monitored for the appearance of geneticin resistant cells. A genecitin resistant cell line was established, and routinely passaged in growth medium containing 400 µg/ml geneticin. This cell line will be referred to as Hep10A.
Hep10A cells were seeded into 96-well microtiter plates at a density of approximately 50,000 cells per well, allowed to grow to confluence, and maintained at confluence for 2 to 4 days to allow Hepatitus B Virus derivative HBV DNA levels to stabilize; see Sells, M.A., et al., J. Virol., 62, p 2836-2844 (1987) and Korba, B.E., et al., Antiviral Res., 15, p 217-228 (1991). At this time, cells were treated with 2'-deoxy-2'-fluoroarabino-5-iodouridine (FIAU) and the compound of Example 5 for 10 days, with daily changes of media containing fresh drug. FIAU was used as a positive control. On day 10, culture supernatant samples were taken and stored at 4°C until needed. PCR analysis was performed on supernatant samples using appropriate primers to amplify a 477 base pair fragment from the "a" determinant of the surface antigen gene of HBV subtype adw. Following eletrophoresis through agarose gels, the DNA was transferred to nylon membranes (Optiblot™, IBI, New Haven, CT) by capillary action (Southern, 1975) using 1X saline sodium citrate (SSC) (1X SSC=0.15 M NaCl, 0.015 M sodium citrate). After baking in vacuo for 30 minutes, the blots were hybridized for 15 to 18 hours to 1x10⁶ cpm/ml of […] the method of random priming (Feinberg and Vogelstein, 1983). Hybridization was carried out at 42°C using 50 percent N,N-dimethylformamide, 6X saline sodium phosphate ethylenediamine tetraacetic acid (SSPE), 1.0 percent sodium dodyl sulfate (SDS), and 50 µg/ml salmon sperm DNA (1X SSPE=0.18 M NaCl; […] NaH₂PO₄, pH 7.4; 1 mmol ethylene diamine tetraacetic acid (EDTA)). The hybridized blots were washed as follows: twice in 2X SSC/0.1 percent SDS at room temperature for 1 hour, once in 0.1X SSC/0.1 percent SDS at room temperature for 30 minutes, and once in 0.1x SSC/0.1 percent supplemented with SDS at 65°C for 15 minutes. The filters were exposed to x-ray film and quantitated by densitometry.

The mark [1] stands for this setting: read-out: Percent Inhibition at Specified µg/ml conc.

As to `O=c1[nH]c(=O)n([C@@H]2O[C@H](CO)[C@@H](O)[C@@H]2F)cc1I` [FIAU, 2'-deoxy-2'-fluoroarabino-5-iodouridine, reference compound], under setting [1], the inhibition at 0.1 µg/mL was 10.8%, the inhibition at 1 µg/mL stood at 35.5%, the inhibition at 10 µg/mL stood at 65.3% and the inhibition at 100 µg/mL came out at 81.7%. The IC50 (read-out: concentration required to inhibit HBV DNA replication by 50 percent) is 5.4 mg/L (≈ 14.5 µM).
